Test results: ChEMBL document CHEMBL5291721, “A preclinical secondary pharmacology resource illuminates target-adverse drug reaction associations of marketed drugs” (Nat Commun, 2023)

How the values were obtained:
[1] = molecular target: T1, Peroxisome proliferator-activated receptor alpha (Homo sapiens, UniProt Q07869); format: functional
T1 sequence (Q07869 whole entry): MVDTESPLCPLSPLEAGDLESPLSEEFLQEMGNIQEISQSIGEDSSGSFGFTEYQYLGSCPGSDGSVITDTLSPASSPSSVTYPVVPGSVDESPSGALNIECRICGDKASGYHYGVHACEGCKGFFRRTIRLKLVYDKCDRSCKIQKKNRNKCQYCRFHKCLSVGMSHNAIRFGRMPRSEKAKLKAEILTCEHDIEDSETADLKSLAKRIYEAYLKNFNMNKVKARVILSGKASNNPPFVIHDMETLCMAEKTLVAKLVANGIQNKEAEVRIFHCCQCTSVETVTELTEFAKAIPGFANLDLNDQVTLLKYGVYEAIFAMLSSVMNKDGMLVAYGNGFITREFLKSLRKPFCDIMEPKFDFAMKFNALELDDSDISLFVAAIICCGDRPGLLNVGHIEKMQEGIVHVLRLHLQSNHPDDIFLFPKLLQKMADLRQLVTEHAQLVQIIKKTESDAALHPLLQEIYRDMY

[2] = molecular target: T1, Peroxisome proliferator-activated receptor alpha; format: functional; remark: listed apart in the source
D(1A) dopamine receptor = D(1A) dopamine receptor (Homo sapiens, UniProt P21728)
Sequence of D(1A) dopamine receptor (P21728 whole entry): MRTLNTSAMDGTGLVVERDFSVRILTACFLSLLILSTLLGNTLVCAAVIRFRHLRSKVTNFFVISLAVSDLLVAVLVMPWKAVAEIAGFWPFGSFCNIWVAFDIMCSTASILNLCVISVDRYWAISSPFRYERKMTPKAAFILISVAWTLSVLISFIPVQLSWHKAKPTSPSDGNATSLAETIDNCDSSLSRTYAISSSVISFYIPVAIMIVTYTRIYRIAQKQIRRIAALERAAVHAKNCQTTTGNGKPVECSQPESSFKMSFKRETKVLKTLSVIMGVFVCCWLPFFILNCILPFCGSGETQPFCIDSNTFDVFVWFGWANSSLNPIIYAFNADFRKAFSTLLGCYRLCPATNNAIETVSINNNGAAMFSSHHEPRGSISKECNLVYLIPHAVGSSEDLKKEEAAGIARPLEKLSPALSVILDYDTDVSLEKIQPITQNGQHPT

[3] = molecular target: T2, Muscarinic acetylcholine receptor M4 (Homo sapiens, UniProt P08173)
T2 sequence (P08173 whole entry): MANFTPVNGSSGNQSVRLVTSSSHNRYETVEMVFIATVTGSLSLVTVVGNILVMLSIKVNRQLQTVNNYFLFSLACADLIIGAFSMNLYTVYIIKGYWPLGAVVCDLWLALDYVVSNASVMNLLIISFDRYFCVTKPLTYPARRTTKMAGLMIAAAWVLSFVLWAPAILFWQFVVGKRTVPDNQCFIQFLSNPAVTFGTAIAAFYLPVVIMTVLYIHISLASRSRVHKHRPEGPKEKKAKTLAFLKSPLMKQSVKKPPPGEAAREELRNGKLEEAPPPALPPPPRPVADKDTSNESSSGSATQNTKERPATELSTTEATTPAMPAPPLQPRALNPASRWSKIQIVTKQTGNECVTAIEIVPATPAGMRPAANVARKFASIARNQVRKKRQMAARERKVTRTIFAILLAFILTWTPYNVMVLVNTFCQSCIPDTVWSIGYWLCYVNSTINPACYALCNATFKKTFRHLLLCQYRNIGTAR

D(1B) dopamine receptor = D(1B) dopamine receptor (Homo sapiens, UniProt P21918)
Sequence of D(1B) dopamine receptor (P21918 whole entry): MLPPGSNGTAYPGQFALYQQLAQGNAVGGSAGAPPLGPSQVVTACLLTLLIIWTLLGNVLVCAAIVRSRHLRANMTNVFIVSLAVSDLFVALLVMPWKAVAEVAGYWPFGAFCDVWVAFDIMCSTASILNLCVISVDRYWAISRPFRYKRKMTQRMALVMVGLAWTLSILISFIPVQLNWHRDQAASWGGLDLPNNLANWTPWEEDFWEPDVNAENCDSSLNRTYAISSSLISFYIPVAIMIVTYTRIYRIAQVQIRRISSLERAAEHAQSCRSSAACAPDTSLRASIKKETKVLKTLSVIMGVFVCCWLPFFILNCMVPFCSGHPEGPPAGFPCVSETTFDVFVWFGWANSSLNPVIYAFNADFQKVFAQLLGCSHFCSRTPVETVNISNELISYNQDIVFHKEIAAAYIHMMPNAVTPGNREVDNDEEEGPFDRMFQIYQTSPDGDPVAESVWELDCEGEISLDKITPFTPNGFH

Substance-K receptor = molecular target: T3, Substance-K receptor (Homo sapiens, UniProt P21452)
T3 sequence (P21452 whole entry): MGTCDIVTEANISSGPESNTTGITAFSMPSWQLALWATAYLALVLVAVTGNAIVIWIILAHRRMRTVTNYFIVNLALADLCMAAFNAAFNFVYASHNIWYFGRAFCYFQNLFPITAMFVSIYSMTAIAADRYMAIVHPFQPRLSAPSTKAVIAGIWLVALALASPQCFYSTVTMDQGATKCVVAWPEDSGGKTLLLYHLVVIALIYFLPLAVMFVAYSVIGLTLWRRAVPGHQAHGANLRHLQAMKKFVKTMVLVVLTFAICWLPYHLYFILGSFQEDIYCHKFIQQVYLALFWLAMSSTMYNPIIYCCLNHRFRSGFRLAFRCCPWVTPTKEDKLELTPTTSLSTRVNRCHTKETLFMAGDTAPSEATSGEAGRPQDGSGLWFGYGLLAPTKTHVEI

[4] = molecular target: T4, Nuclear receptor subfamily 1 group I member 3 (Homo sapiens, UniProt Q14994); format: functional
T4 sequence (Q14994 whole entry): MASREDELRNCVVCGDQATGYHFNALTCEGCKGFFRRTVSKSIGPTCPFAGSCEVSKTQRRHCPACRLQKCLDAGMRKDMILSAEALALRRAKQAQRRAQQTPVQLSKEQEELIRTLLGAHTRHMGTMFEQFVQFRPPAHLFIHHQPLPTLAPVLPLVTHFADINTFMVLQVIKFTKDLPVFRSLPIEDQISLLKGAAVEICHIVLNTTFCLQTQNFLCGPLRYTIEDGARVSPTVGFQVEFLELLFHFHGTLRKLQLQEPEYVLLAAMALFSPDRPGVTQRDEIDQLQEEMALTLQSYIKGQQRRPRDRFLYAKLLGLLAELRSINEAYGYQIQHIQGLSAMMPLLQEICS

[5] = molecular target: T5, Retinoic acid receptor alpha (Homo sapiens, UniProt P10276); format: functional, cell-based
T5 sequence (P10276 whole entry): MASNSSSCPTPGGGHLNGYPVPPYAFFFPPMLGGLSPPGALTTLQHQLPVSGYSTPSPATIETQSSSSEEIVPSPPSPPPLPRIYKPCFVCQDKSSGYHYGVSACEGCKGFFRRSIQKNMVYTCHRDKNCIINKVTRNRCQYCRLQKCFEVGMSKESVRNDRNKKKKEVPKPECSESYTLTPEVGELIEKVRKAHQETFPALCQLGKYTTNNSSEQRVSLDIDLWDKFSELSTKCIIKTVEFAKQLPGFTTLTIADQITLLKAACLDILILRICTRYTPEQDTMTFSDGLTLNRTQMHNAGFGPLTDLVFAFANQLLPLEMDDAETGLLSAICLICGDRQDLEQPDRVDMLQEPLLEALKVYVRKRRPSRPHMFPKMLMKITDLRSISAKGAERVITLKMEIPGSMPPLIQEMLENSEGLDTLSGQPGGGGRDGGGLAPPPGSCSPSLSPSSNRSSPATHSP

[6] = molecular target: T6, Retinoic acid receptor beta (Homo sapiens, UniProt P10826); format: functional, cell-based
T6 sequence (P10826 whole entry): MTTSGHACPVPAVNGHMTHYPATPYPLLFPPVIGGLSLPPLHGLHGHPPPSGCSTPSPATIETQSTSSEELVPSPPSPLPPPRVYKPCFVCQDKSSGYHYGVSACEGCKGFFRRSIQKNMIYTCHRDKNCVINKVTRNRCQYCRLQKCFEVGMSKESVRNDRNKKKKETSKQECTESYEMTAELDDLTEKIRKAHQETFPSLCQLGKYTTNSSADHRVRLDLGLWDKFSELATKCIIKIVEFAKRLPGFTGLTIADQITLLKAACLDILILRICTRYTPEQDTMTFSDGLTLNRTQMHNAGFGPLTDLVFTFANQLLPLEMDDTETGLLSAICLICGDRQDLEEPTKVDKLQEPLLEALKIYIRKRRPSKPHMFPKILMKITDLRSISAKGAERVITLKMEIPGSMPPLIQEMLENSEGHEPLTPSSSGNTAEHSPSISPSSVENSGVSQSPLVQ
Note: assay procedure not described here.

| SMILES | AC50 [1] [µM] | AC50 [2] [µM] | AC50 [3] [µM] | AC50 (D(1B) dopamine receptor) [µM] | AC50 (Substance-K receptor) [µM] | AC50 [4] [µM] | further results |
| --- | --- | --- | --- | --- | --- | --- | --- |
| CC(=O)Nc1ccc(O)cc1 [ACETAMINOPHEN] | > 30 | > 30 |  |  |  |  |  |
| CC[C@H]1OC(=O)[C@H](C)[C@@H](O[C@H]2C[C@@](C)(OC)[C@@H](O)[C@H](C)O2)[C@H](C)[C@@H](O[C@@H]2O[C@H](C)C[C@H](N(C)C)[C@H]2O)[C@](C)(O)C[C@@H](C)CN(C)[C@H](C)[C@@H](O)[C@]1(C)O [AZITHROMYCIN] |  |  |  |  |  |  | AC50 (D(1A) dopamine receptor): > 30 µM |
| NCC(CC(=O)O)c1ccc(Cl)cc1 (stereo not given) [BACLOFEN] |  |  | > 10 | > 10 | > 10 |  |  |
| CCc1oc2ccccc2c1C(=O)c1cc(I)c(O)c(I)c1 [BENZIODARONE] |  |  |  |  |  |  | AC50 (D(1A) dopamine receptor): > 30 µM |
| Cc1ccc(-c2cc(C(F)(F)F)nn2-c2ccc(S(N)(=O)=O)cc2)cc1 [CELECOXIB] |  |  | > 10 | > 10 | > 10 |  |  |
| CN(C)CCC(c1ccc(Cl)cc1)c1ccccn1 (stereo not given) [CHLORPHENIRAMINE] |  |  | > 10 | > 10 | > 10 |  |  |
| CCC1=C(C)CN(C(=O)NCCc2ccc(S(=O)(=O)NC(=O)N[C@H]3CC[C@H](C)CC3)cc2)C1=O [GLIMEPIRIDE] | > 30 | > 30 |  |  |  |  |  |
| CCC(C)n1ncn(-c2ccc(N3CCN(c4ccc(OCC5COC(Cn6cncn6)(c6ccc(Cl)cc6Cl)O5)cc4)CC3)cc2)c1=O (stereo not given) [ITRACONAZOLE] | > 30 | > 30 |  |  |  | > 30 |  |
| CN1C(C(=O)Nc2ccccn2)=C(O)c2sc(Cl)cc2S1(=O)=O [LORNOXICAM] | > 30 | > 30 |  |  |  | > 30 | AC50 [5]: > 30 µM; AC50 [6]: > 30 µM |
| Cc1c(C(=O)NN2CCCCC2)nn(-c2ccc(Cl)cc2Cl)c1-c1ccc(Cl)cc1 [RIMONABANT] | > 30 | > 30 | > 10 | > 10 | > 10 | 6.6 | AC50 [5]: > 30 µM; AC50 [6]: > 30 µM |
| CS(=O)(=O)c1ccc(C2=C(c3ccccc3)C(=O)OC2)cc1 [ROFECOXIB] |  |  | > 10 | > 10 | > 10 |  |  |
| N[C@@H]1[C@H]2CN(c3nc4c(cc3F)c(=O)c(C(=O)O)cn4-c3ccc(F)cc3F)C[C@@H]12 [TROVAFLOXACIN] |  |  |  |  |  | > 30 |  |
